Consider 19 compounds from PubChem BioAssay AID248 (DTP/NCI, 2004).

In the experiment the test system is L1210 leukemia ip in BDF1 mice, survival T/C. As to the kind of experiment: NCI In Vivo Anticancer Drug Screen. Data for tumor model L1210 Leukemia (intraperitoneal) in B6D2F1 (BDF1) mice. The note with it: endpoint: mean survival time, higher = longer survival. Put shortly: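 Mice bearing the transplanted tumor received compound or vehicle. Survival of the treated group was divided by that of the vehicle-treated control group to give the ratio.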

Setting [1] is: dose: 100.0 mg/kg/injection, schedule: Q01DX001 (ip), vehicle: saline.
[2] abbreviates: dose: 200.0 mg/kg/injection, schedule: Q01DX001 (ip), vehicle: saline.
The mark [3] stands for this setting: dose: 400.0 mg/kg/injection, schedule: Q01DX001 (ip), vehicle: saline.
The mark [4] stands for this setting: dose: 100.0 mg/kg/injection, schedule: Q01DX009 (ip), vehicle: saline.
The mark [5] stands for this setting: dose: 100.0 mg/kg/injection, schedule: Q04DX003 (ip), vehicle: saline.
[6] abbreviates: dose: 200.0 mg/kg/injection, schedule: Q01DX009 (ip), vehicle: saline.
Where [7] appears, read: dose: 200.0 mg/kg/injection, schedule: Q04DX003 (ip), vehicle: saline.
Setting [8] is: dose: 400.0 mg/kg/injection, schedule: Q01DX009 (ip), vehicle: saline.
Where [9] appears, read: dose: 400.0 mg/kg/injection, schedule: Q04DX003 (ip), vehicle: saline.
[10] abbreviates: dose: 200.0 mg/kg/injection, schedule: Q01DX009 (ip), vehicle: saline with Tween-80.
Setting [11] is: dose: 400.0 mg/kg/injection, schedule: Q01DX009 (ip), vehicle: saline with Tween-80.
Setting [12] is: dose: 75.0 mg/kg/injection, schedule: Q01DX001 (ip), vehicle: saline.
Where [13] appears, read: dose: 100.0 mg/kg/injection, schedule: Q01DX009 (ip), vehicle: saline with Tween-80.
Setting [14] is: dose: 100.0 mg/kg/injection, schedule: Q04DX003 (ip), vehicle: saline with Tween-80.
The mark [15] stands for this setting: dose: 200.0 mg/kg/injection, schedule: Q04DX003 (ip), vehicle: saline with Tween-80.
[16] abbreviates: dose: 400.0 mg/kg/injection, schedule: Q04DX003 (ip), vehicle: saline with Tween-80.
The mark [17] stands for this setting: dose: 100.0 mg/kg/injection, schedule: Q01DX001 (ip), vehicle: carboxymethylcellulose (CMC).
[18] abbreviates: dose: 200.0 mg/kg/injection, schedule: Q01DX001 (ip), vehicle: carboxymethylcellulose (CMC).
Where [19] appears, read: dose: 400.0 mg/kg/injection, schedule: Q01DX001 (ip), vehicle: carboxymethylcellulose (CMC).

Where “and” joins values, the source holds several entries; their conditions need not be identical. Equal entries are not always repeated. Inconclusive results and toxic doses are left out.

In the case of `Cc1ccnc(N)c1`, the T/C runs as follows: (dose: 12.5 mg/kg/injection, schedule: Q04DX002 (ip), vehicle: saline) 114 % of control; (dose: 25.0 mg/kg/injection, schedule: Q04DX002 (ip), vehicle: saline) 102 % of control; (dose: 50.0 mg/kg/injection, schedule: Q04DX002 (ip), vehicle: saline) 96 % of control.

As to `O=C(Cc1ccc([N+](=O)[O-])cc1)NCCc1ccc2c(c1)OCO2`, the T/C is 96 % of control under setting [1], 102 % of control under setting [2] and 100 % of control under setting [3].

Take `CCCN(CCC)CCC(=O)O`: the T/C under setting [4] is 100 % of control; the T/C under setting [5] was 97 % of control; the T/C under setting [6] was 96 % of control; the T/C under setting [7] was 108 % of control; the T/C under setting [8] is 102 % of control; the T/C under setting [9] was 101 % of control.

Take `C=CCOC(OCC=C)C(OCC=C)OCC=C`: the T/C is, setting by setting: under setting [10], 97 % of control; under setting [11], 104 % of control.

For the compound `Oc1ccccc1CNCc1ccccc1O`, the T/C is 96 % of control under setting [12] and 96 % of control (dose: 150.0 mg/kg/injection, schedule: Q01DX001 (ip), vehicle: saline).

In the case of `O=c1cc(-c2ccccc2)ss1`, the T/C (dose: 100.0 mg/kg/injection, schedule: Q01DX009 (ip), vehicle: Klucel (hydroxypropylcellulose) (HPC)) is 100 % of control; the T/C under setting [13] was 101 % of control; the T/C under setting [14] was 102 % of control; the T/C (dose: 200.0 mg/kg/injection, schedule: Q01DX009 (ip), vehicle: Klucel (hydroxypropylcellulose) (HPC)) is 102 % of control; the T/C under setting [10] is 97 % of control; the T/C under setting [15] is 102 % of control. Further, the T/C is, setting by setting: (dose: 400.0 mg/kg/injection, schedule: Q01DX009 (ip), vehicle: Klucel (hydroxypropylcellulose) (HPC)) 105 % of control; under setting [11], 96 % of control; under setting [16], 103 % of control.

Take `O=C(OC1CCCC2CCCC21)c1ccc([N+](=O)[O-])cc1` (stereo not drawn): the T/C is, setting by setting: under setting [17], 93 % of control; under setting [18], 95 % of control; under setting [19], 98 % of control.

As to `CCCCCCCCCCCCCCCCCCN1CNC(=O)NC1`, the T/C was 93 % of control (dose: 100.0 mg/kg/injection, schedule: Q04DX003 (ip), vehicle: Klucel (hydroxypropylcellulose) (HPC)) and 101 % of control (dose: 200.0 mg/kg/injection, schedule: Q04DX003 (ip), vehicle: Klucel (hydroxypropylcellulose) (HPC)).

Turning to `COCC1=CC(=O)CCC1CC1OC1(C)C` (stereo not drawn), the T/C (dose: 50.0 mg/kg/injection, schedule: Q01DX009 (ip), vehicle: saline with Tween-80) is 96 % of control; the T/C under setting [13] is 96 % of control; the T/C under setting [10] was 96 % of control.

On to `Cn1[nH]c(=O)[nH]c1=O`, for which the T/C was 103 % of control (dose: 100.0 mg/kg/injection, schedule: Q04DX002 (ip), vehicle: saline); 98 % of control and 87 % of control under setting [14]; 100 % of control (dose: 200.0 mg/kg/injection, schedule: Q04DX002 (ip), vehicle: saline); 93 % of control under setting [15]; 103 % of control (dose: 400.0 mg/kg/injection, schedule: Q04DX002 (ip), vehicle: saline); 90 % of control under setting [16].

Take `Cc1cccc(Cl)c1NC(=O)CCCl`: the T/C runs as follows: under setting [13], 103 % of control; under setting [10], 104 % of control; under setting [11], 90 % of control.

As to `CCSCCSCC`, the T/C under setting [4] was 98 % of control; the T/C under setting [5] is 101 % of control; the T/C under setting [6] was 98 % of control; the T/C under setting [7] was 97 % of control; the T/C under setting [8] is 96 % of control; the T/C under setting [9] was 97 % of control.

For `NC(=O)CNC1=C(N2CC2)C(=O)C(NCC(N)=O)=C(N2CC2)C1=O`, the T/C is, setting by setting: (dose: 0.12 mg/kg/injection, schedule: Q04DX003 (ip), vehicle: saline) 106 % of control; (dose: 0.25 mg/kg/injection, schedule: Q04DX003 (ip), vehicle: saline) 101 % of control; (dose: 0.5 mg/kg/injection, schedule: Q04DX003 (ip), vehicle: saline) 116 % of control; (dose: 1.0 mg/kg/injection, schedule: Q04DX003 (ip), vehicle: saline) 119 % of control; (dose: 1.25 mg/kg/injection, schedule: Q01DX001 (ip), vehicle: saline) 102 % of control; (dose: 1.25 mg/kg/injection, schedule: Q01DX009 (ip), vehicle: saline) 102 % of control. Besides, the T/C by setting is: (dose: 2.5 mg/kg/injection, schedule: Q01DX001 (ip), vehicle: saline) 100 % of control; (dose: 2.5 mg/kg/injection, schedule: Q01DX009 (ip), vehicle: saline) 124 % of control; (dose: 5.0 mg/kg/injection, schedule: Q01DX001 (ip), vehicle: saline) 108 % of control; (dose: 5.0 mg/kg/injection, schedule: Q01DX009 (ip), vehicle: saline) 163 % of control; (dose: 8.0 mg/kg/injection, schedule: Q04DX003 (ip), vehicle: saline) 193 % of control; (dose: 10.0 mg/kg/injection, schedule: Q01DX001 (ip), vehicle: saline) 115 % of control. Also, the T/C reads like this: (dose: 10.0 mg/kg/injection, schedule: Q01DX009 (ip), vehicle: saline) 158 % of control and 191 % of control; (dose: 12.0 mg/kg/injection, schedule: Q04DX003 (ip), vehicle: saline) 122 % of control.

Turning to `Cc1ccc(S(=O)(=O)N(N)C(=O)c2ccccc2)cc1`, under setting [12], the T/C was 86 % of control.

For the compound `CCCCCCCC/C=C\CCCCCCCCN1CC(C(=O)[O][Pb]([CH2]C)([CH2]C)[CH2]C)CC1=O` (stereo not drawn), the T/C runs as follows: (dose: 1.5 mg/kg/injection, schedule: Q01DX009 (ip), vehicle: saline with Tween-80) 100 % of control; (dose: 3.0 mg/kg/injection, schedule: Q01DX009 (ip), vehicle: saline with Tween-80) 101 % of control; (dose: 6.0 mg/kg/injection, schedule: Q01DX009 (ip), vehicle: saline with Tween-80) 100 % of control; (dose: 6.25 mg/kg/injection, schedule: Q01DX009 (ip), vehicle: saline with Tween-80) 94 % of control; (dose: 12.5 mg/kg/injection, schedule: Q04DX002 (ip), vehicle: saline with Tween-80) 108 % of control; (dose: 25.0 mg/kg/injection, schedule: Q04DX002 (ip), vehicle: saline with Tween-80) 105 % of control.

With `Cc1ccccc1N1C(N)=NC(N)=NC1(C)C`, the T/C is 89 % of control (dose: 6.25 mg/kg/injection, schedule: Q01DX009 (ip), vehicle: Klucel (hydroxypropylcellulose) (HPC)); 91 % of control (dose: 12.5 mg/kg/injection, schedule: Q01DX009 (ip), vehicle: Klucel (hydroxypropylcellulose) (HPC)); 100 % of control (dose: 25.0 mg/kg/injection, schedule: Q01DX009 (ip), vehicle: Klucel (hydroxypropylcellulose) (HPC)); 96 % of control (dose: 50.0 mg/kg/injection, schedule: Q01DX009 (ip), vehicle: Klucel (hydroxypropylcellulose) (HPC)); 103 % of control under setting [12].

In the case of `CCNc1nc(Cl)nc(-c2cn(-c3ccccc3)c3ccccc23)n1`, the T/C under setting [1] is 93 % of control; the T/C under setting [13] is 101 % of control; the T/C under setting [5] was 99 % of control; the T/C under setting [2] was 90 % of control; the T/C under setting [10] is 92 % of control; the T/C under setting [7] is 92 % of control. Moreover, the T/C is, setting by setting: under setting [3], 88 % of control; under setting [9], 94 % of control.

Regarding `COc1ccc(OC)c(NC(=O)Nc2ccc(O)cc2)c1`, the T/C under setting [14] is 98 % of control, the T/C under setting [15] is 98 % of control and the T/C under setting [16] is 93 % of control.

Turning to `COC1(OC)C2C(Cl)=C(Cl)C1(Cl)C(Br)C2c1ccccc1` (stereo not drawn), the T/C under setting [17] was 97 % of control, the T/C under setting [18] was 92 % of control and the T/C under setting [19] was 103 % of control.
